Measured values published in ChEMBL document CHEMBL5528046, “Discovery of Novel PROTAC Degraders of p300/CBP as Potential Therapeutics for Hepatocellular Carcinoma” (J Med Chem, 2024).
The source made the active and inactive calls. The calls are words filed in the database; no cut-off is given here.

How the values were obtained:
[1] = target: T1, Protein cereblon/Histone acetyltransferase p300 (Homo sapiens, UniProt Q09472+Q96SW2); assay: PROTAC activity at CRBN/p300 in human SK-HEP1 cells assessed as induction of p300 protein degradation at 0.01 uM incubated for 24 hrs relative to control; format: cell-based
T1 sequence (Q09472 2-2414 limits assumed): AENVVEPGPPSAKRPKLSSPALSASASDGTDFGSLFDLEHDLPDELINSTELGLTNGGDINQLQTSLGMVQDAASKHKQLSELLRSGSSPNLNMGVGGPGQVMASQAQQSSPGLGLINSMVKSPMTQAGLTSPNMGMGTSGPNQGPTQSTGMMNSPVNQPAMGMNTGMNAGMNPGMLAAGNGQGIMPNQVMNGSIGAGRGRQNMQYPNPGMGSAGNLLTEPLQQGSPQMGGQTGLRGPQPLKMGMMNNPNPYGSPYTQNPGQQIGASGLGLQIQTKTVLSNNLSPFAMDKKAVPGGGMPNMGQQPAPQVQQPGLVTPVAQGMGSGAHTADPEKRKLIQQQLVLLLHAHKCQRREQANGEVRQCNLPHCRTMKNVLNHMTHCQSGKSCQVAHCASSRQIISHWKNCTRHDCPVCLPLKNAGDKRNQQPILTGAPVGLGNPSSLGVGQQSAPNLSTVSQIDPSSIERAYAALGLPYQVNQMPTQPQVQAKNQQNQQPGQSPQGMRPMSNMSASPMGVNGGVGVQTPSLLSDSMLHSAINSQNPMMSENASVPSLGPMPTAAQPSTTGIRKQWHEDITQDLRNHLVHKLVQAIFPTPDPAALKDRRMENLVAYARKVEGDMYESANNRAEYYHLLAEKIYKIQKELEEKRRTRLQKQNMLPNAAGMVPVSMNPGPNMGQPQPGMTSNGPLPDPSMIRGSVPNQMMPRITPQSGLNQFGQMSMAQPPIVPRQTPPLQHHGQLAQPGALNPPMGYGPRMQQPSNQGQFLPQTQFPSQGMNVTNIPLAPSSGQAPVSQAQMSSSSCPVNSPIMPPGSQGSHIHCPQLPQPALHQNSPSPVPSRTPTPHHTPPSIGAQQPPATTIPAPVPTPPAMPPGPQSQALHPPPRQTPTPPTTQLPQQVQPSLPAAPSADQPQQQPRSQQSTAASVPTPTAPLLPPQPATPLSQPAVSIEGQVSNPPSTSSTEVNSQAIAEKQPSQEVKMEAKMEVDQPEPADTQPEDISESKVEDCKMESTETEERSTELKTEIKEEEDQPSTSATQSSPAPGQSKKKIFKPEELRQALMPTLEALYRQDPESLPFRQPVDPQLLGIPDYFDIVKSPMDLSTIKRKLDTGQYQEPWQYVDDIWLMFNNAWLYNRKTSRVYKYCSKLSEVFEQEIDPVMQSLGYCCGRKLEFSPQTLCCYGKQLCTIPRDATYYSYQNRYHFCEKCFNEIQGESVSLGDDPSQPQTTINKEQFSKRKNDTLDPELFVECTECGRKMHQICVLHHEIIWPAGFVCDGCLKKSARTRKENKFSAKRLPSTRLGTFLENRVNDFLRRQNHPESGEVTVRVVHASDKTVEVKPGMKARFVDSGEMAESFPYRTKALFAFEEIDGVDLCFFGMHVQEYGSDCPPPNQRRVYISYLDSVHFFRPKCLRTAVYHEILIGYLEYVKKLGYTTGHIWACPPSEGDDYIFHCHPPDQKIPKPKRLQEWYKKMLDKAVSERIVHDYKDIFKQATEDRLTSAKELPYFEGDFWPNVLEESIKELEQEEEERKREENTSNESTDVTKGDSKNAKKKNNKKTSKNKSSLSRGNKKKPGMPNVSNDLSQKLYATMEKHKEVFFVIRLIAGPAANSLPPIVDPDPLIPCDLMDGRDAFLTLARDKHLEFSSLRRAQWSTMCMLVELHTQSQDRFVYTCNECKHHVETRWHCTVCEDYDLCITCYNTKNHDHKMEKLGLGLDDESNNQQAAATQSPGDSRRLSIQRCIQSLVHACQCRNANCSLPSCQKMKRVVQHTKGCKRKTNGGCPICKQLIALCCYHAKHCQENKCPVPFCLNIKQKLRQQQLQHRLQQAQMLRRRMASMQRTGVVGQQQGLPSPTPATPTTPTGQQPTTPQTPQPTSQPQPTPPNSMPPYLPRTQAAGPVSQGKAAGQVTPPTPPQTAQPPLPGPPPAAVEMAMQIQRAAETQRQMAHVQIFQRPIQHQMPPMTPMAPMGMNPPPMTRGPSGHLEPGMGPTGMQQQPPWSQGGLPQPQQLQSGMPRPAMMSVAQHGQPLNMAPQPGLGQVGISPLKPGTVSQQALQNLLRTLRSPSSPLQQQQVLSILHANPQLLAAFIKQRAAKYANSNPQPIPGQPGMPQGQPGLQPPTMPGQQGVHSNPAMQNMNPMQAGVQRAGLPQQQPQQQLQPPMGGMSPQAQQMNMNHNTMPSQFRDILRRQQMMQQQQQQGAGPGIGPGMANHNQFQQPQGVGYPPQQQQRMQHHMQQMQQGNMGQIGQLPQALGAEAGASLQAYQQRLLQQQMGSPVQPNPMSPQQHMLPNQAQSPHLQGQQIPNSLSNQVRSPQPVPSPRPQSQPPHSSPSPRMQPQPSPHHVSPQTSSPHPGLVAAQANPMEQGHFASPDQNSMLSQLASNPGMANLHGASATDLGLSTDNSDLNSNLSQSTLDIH
T1 sequence (Q96SW2 whole entry partner): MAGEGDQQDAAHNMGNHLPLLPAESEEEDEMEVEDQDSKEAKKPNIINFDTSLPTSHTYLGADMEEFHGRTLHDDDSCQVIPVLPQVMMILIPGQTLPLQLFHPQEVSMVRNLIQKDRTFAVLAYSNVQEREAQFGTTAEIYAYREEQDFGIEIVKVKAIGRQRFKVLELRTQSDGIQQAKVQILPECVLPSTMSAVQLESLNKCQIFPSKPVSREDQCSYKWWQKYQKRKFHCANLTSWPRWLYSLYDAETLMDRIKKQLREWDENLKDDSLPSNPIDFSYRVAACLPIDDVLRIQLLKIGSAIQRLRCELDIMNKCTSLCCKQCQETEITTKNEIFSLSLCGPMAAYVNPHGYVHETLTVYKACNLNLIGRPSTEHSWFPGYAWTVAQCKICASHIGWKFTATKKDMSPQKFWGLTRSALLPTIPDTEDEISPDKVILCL

[2] = target: T1, Protein cereblon/Histone acetyltransferase p300; assay: PROTAC activity at CRBN/p300 in human SK-HEP1 cells assessed as induction of p300 protein degradation at 0.1 uM incubated for 24 hrs relative to control; format: cell-based
[3] = target: T1, Protein cereblon/Histone acetyltransferase p300; assay: PROTAC activity at CRBN/p300 in human SK-HEP1 cells assessed as induction of p300 protein degradation at 1 uM incubated for 24 hrs relative to control; format: cell-based
[4] = target: CREB-binding protein/Histone acetyltransferase p300 (Homo sapiens, UniProt Q09472+Q92793); assay: Inhibition of p300/CBP (unknown origin) using histone H3 (1 to 21 residues) as substrate incubated for 90 mins by AlphaLISA assay; format: protein assay
SK-HEP1 [5] = assay: Antiproliferative activity against human SK-HEP1 cells assessed as inhibition of cell growth incubated for 5 days by CCK-8 assay; format: functional, cell-based; details: SK-HEP1, 120 h
[6] = Antiproliferative activity against human JHH7 cells assessed as inhibition of cell growth incubated for 5 days by CCK-8 assay; format: functional, cell-based; details: JHH7, 120 h
SK-HEP1 [7] = assay: Induction of cell cycle arrest at G2/M phase in human SK-HEP1 cells assessed as SKP2 protein level at 2 uM incubated for 24 hrs by immunoblotting analysis (reference value: 100%); format: functional
SK-HEP1 [8] = assay: Induction of cell cycle arrest at G2/M phase in human SK-HEP1 cells assessed as reduction in CDK6 protein level at 2 uM incubated for 24 hrs by immunoblotting analysis (reference value: 100%); format: functional; set-up: scale not given: the % may be the effect or the level left
Mus musculus = assay: In vivo PROTAC activity at CRBN/p300 in nude mouse xenografted with human SK-HEP1 cells assessed as reduction in p300 protein level in tumor at 50 mg/kg, ip measured after 24 hrs by immunoblotting analysis; format: functional, organism-based
[9] = target: Protein cereblon/CREB-binding protein (Homo sapiens) (UniProt Q92793+Q96SW2); assay: In vivo PROTAC activity at CRBN/CBP in nude mouse xenografted with human SK-HEP1 cells assessed as reduction in CBP protein level in tumor at 50 mg/kg, ip measured after 24 hrs by immunoblotting analysis; format: functional, organism-based
[10] = target: T1, Protein cereblon/Histone acetyltransferase p300; assay: PROTAC activity at CRBN/p300 in human SK-HEP1 cells assessed as increase in protein ubiquitination at 2 uM incubated for 24 hrs by immunoblotting analysis (reference value: 100%); format: cell-based
[11] = target: T1, Protein cereblon/Histone acetyltransferase p300; assay: PROTAC activity at CRBN/p300 in human SK-HEP1 cells assessed as increase in protein ubiquitination at 2 uM pretreated with MG132 at 1 uM followed by compound treatment and further incubated for 24 hrs by immunoblotting analysis (reference value: 100%); format: cell-based

Row | SMILES | Activity [1] [%] | Activity [2] [%] | Activity [3] [%] | also measured
1 | Cc1noc(C)c1-c1ccc2c(c1)nc([C@@H]1CCCC(=O)N1c1ccc(F)c(F)c1)n2C1CN(C2CN(c3cccc4c3C(=O)N(C3CCC(=O)NC3=O)C4=O)C2)C1 (stereo partly specified) | 3 | < 1 | 23 | 
2 | CC(=O)N1CCC(n2c([C@@H]3CCCC(=O)N3c3ccc(F)c(F)c3)nc3cc(-c4c(C)noc4C)ccc32)CC1 |  |  |  | IC50 [4]: 0.026 µM; IC50 (SK-HEP1 [5]): 4.36 µM; IC50 [6]: > 20 µM; Activity (SK-HEP1 [7]): 117%; Activity (SK-HEP1 [8]): 101%; Activity (Mus musculus): inactive; Activity [9]: inactive; Activity [10]: 105%; Activity [11]: 97%
3 | Cc1noc(C)c1-c1ccc2c(c1)nc([C@@H]1CCCC(=O)N1c1ccc(F)c(F)c1)n2C1CN(C2CCN(c3cccc4c3C(=O)N(C3CCC(=O)NC3=O)C4=O)CC2)C1 (stereo partly specified) | < 1 | 8 | 28 | 
4 | Cc1noc(C)c1-c1ccc2c(c1)nc([C@@H]1CCCC(=O)N1c1ccc(F)c(F)c1)n2C1CCN(C(=O)CNc2ccc3c(c2)C(=O)N(C2CCC(=O)NC2=O)C3=O)CC1 (stereo partly specified) | < 1 | 2 | 3 | 
5 | Cc1noc(C)c1-c1ccc2c(c1)nc([C@@H]1CCCC(=O)N1c1ccc(F)c(F)c1)n2C1CCN(c2cccc3c2C(=O)N(C2CCC(=O)NC2=O)C3=O)CC1 (stereo partly specified) | < 1 | < 1 | 39 | 
6 | Cc1noc(C)c1-c1ccc2c(c1)nc([C@@H]1CCCC(=O)N1c1ccc(F)c(F)c1)n2C1CCN(C(=O)CCOCCNc2cccc3c2C(=O)N(C2CCC(=O)NC2=O)C3=O)CC1 (stereo partly specified) | < 1 | < 1 | 15 | 
7 | Cc1noc(C)c1-c1ccc2c(c1)nc([C@@H]1CCCC(=O)N1c1ccc(F)c(F)c1)n2C1CCN(C(=O)CCOCCOCCOCCNc2cccc3c2C(=O)N(C2CCC(=O)NC2=O)C3=O)CC1 (stereo partly specified) | < 1 | < 1 | 8 | 
8 | Cc1noc(C)c1-c1ccc2c(c1)nc([C@@H]1CCCC(=O)N1c1ccc(F)c(F)c1)n2C1CCN(C(=O)CCOCCNc2ccc3c(c2)C(=O)N(C2CCC(=O)NC2=O)C3=O)CC1 (stereo partly specified) | < 1 | < 1 | 18 | 
9 | Cc1noc(C)c1-c1ccc2c(c1)nc([C@@H]1CCCC(=O)N1c1ccc(F)c(F)c1)n2C1CCN(C(=O)CCOCCOCCNc2ccc3c(c2)C(=O)N(C2CCC(=O)NC2=O)C3=O)CC1 (stereo partly specified) | < 1 | < 1 | 29 | 
10 | CC(=O)N1CC(n2c([C@@H]3CCCC(=O)N3c3ccc(F)c(F)c3)nc3cc(-c4c(C)noc4C)ccc32)C1 |  |  |  | IC50 [4]: 0.025 µM
11 | CO[C@H]1CC[C@H](n2c([C@@H]3CCCC(=O)N3c3ccc(F)c(F)c3)nc3cc(-c4c(C)noc4C)ccc32)CC1 [INOBRODIB] |  |  |  | IC50 (SK-HEP1 [5]): 4.68 µM; IC50 [6]: 9.7 µM; Activity (SK-HEP1 [7]): 95%; Activity (SK-HEP1 [8]): 96%
12 | Cc1noc(C)c1-c1ccc2c(c1)nc([C@@H]1CCCC(=O)N1c1ccc(F)c(F)c1)n2C1CCN(C(=O)CCOCCOCCNc2cccc3c2C(=O)N(C2CCC(=O)NC2=O)C3=O)CC1 (stereo partly specified) | < 1 | 2 | 25 | 
13 | Cc1noc(C)c1-c1ccc2c(c1)nc([C@@H]1CCCC(=O)N1c1ccc(F)c(F)c1)n2C1CCN(C(=O)CCOCCOCCOCCOCCNc2ccc3c(c2)C(=O)N(C2CCC(=O)NC2=O)C3=O)CC1 (stereo partly specified) | < 1 | < 1 | 28 | 

Further lines, with some results ahead:

Row | Activity [1] [%] | Activity [2] [%] | Activity [3] [%] | SMILES | also measured
14 | 6 | 9 | 32 | Cc1noc(C)c1-c1ccc2c(c1)nc([C@@H]1CCCC(=O)N1c1ccc(F)c(F)c1)n2C1CCN(c2ccc3c(c2)C(=O)N(C2CCC(=O)NC2=O)C3=O)CC1 (stereo partly specified) | 
15 | 4 | 6 | 9 | Cc1noc(C)c1-c1ccc2c(c1)nc([C@@H]1CCCC(=O)N1c1ccc(F)c(F)c1)n2C1CCN(C2CCN(c3cccc4c3C(=O)N(C3CCC(=O)NC3=O)C4=O)CC2)CC1 (stereo partly specified) | 
16 | < 1 | < 1 | 19 | Cc1noc(C)c1-c1ccc2c(c1)nc([C@@H]1CCCC(=O)N1c1ccc(F)c(F)c1)n2C1CCN(C(=O)CCOCCOCCOCCNc2ccc3c(c2)C(=O)N(C2CCC(=O)NC2=O)C3=O)CC1 (stereo partly specified) | 
17 | 3 | 7 | 18 | CNC(=O)N1CCc2c(c(N3CCCc4cc(-c5cnn(C)c5)c(C(F)F)cc43)nn2C2CCN(C(=O)CCOCCOCCOCCOCCNc3ccc4c(c3)C(=O)N(C3CCC(=O)NC3=O)C4=O)CC2)C1 (stereo unspecified) | IC50 (SK-HEP1 [5]): > 20 µM; IC50 [6]: > 20 µM
18 | < 1 | < 1 | 27 | Cc1noc(C)c1-c1ccc2c(c1)nc([C@@H]1CCCC(=O)N1c1ccc(F)c(F)c1)n2C1CN(C2CN(c3ccc4c(c3)C(=O)N(C3CCC(=O)NC3=O)C4=O)C2)C1 (stereo partly specified) | 
19 | < 1 | < 1 | 18 | Cc1noc(C)c1-c1ccc2c(c1)nc([C@@H]1CCCC(=O)N1c1ccc(F)c(F)c1)n2C1CCN(C(=O)CNc2cccc3c2C(=O)N(C2CCC(=O)NC2=O)C3=O)CC1 (stereo partly specified) | 
20 | 9 | 5 | 38 | Cc1noc(C)c1-c1ccc2c(c1)nc([C@@H]1CCCC(=O)N1c1ccc(F)c(F)c1)n2C1CCN(C2CCN(c3ccc4c(c3)C(=O)N(C3CCC(=O)NC3=O)C4=O)CC2)CC1 (stereo partly specified) | 
21 | < 1 | < 1 | 49 | Cc1noc(C)c1-c1ccc2c(c1)nc([C@@H]1CCCC(=O)N1c1ccc(F)c(F)c1)n2C1CCN(C(=O)CCOCCOCCOCCOCCNc2cccc3c2C(=O)N(C2CCC(=O)NC2=O)C3=O)CC1 (stereo partly specified) | 
22 | 4 | < 1 | 26 | Cc1noc(C)c1-c1ccc2c(c1)nc([C@@H]1CCCC(=O)N1c1ccc(F)c(F)c1)n2C1CN(C2CCN(c3ccc4c(c3)C(=O)N(C3CCC(=O)NC3=O)C4=O)CC2)C1 (stereo partly specified) | 
23 | < 1 | < 1 | 4 | Cc1noc(C)c1-c1ccc2c(c1)nc([C@@H]1CCCC(=O)N1c1ccc(F)c(F)c1)n2C1CCN(C2CN(c3cccc4c3C(=O)N(C3CCC(=O)NC3=O)C4=O)C2)CC1 (stereo partly specified) | 
